{"source": "PubChem BioAssay AID192", "about": "(DTP/NCI, 2004)", "test_system": "BDF1 mice, B16 melanoma ip, median survival T/C", "assay": "NCI In Vivo Anticancer Drug Screen. Data for tumor model B16 Melanoma (intraperitoneal) in B6D2F1 (BDF1) mice", "settings": "endpoint: median survival time, higher = longer survival", "how_it_was_run": "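Transplantable tumor model; survival or tumor size measured; reported as T/C, treated over vehicle control.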", "key": {"[1]": {"settings": "dose: 6.25 mg/kg/injection, schedule: Q01DX009 (ip), vehicle: saline"}, "[2]": {"settings": "dose: 12.5 mg/kg/injection, schedule: Q01DX009 (ip), vehicle: saline"}, "[3]": {"settings": "dose: 25.0 mg/kg/injection, schedule: Q01DX009 (ip), vehicle: saline"}, "[4]": {"settings": "dose: 50.0 mg/kg/injection, schedule: Q01DX009 (ip), vehicle: saline"}, "[5]": {"settings": "dose: 6.25 mg/kg/injection, schedule: Q01DX009 (ip), vehicle: saline with Tween-80"}, "[6]": {"settings": "dose: 5.0 mg/kg/injection, schedule: Q01DX009 (ip), vehicle: Klucel (hydroxypropylcellulose) (HPC)"}}, "note": "Values joined by “and” are separate entries in the source; they are usually repeats but may differ in a detail not shown here. Equal values may be shown once. Toxic doses and inconclusive results are not listed. Square brackets hold non-standard residues; d marks the D form. Peptide text beside a SMILES is read from it. ξ: configuration not given here. Ac5c = NC1(C(=O)O)CCCC1; ξS = NC(CO)C(=O)O", "data": [{"smiles": "C1CC[N-]CC1.C1CC[N-]CC1.CS(C)=O.[Cl][Rh]([Cl])[Cl]", "values": [{"measurement": "T/C", "setting": "dose: 5.0 mg/kg/injection, schedule: Q01DX009 (ip), vehicle: saline with Tween-80", "result": "99 % of control"}, {"measurement": "T/C", "setting": "dose: 10.0 mg/kg/injection, schedule: Q01DX009 (ip), vehicle: saline with Tween-80", "result": "95 % of control"}]}, {"smiles": "CN1CCN(C(c2ccccc2)c2ccc(Cl)cc2)CC1", "note": "(stereo not given)", "values": [{"measurement": "T/C", "setting": "dose: 3.12 mg/kg/injection, schedule: Q01DX009 (ip), vehicle: saline", "result": "105 % of control"}, {"measurement": "T/C", "setting": "[1]", "result": "105 % of control"}, {"measurement": "T/C", "setting": "[2]", "result": "102 % of control"}, {"measurement": "T/C", "setting": "[3]", "result": "102 % of control"}, {"measurement": "T/C", "setting": "[4]", "result": "100 % of control"}]}, {"smiles": "CCc1ncnc2cc(OCC3CO3)c(OC)cc12", "note": "(stereo not given)", "values": [{"measurement": "T/C", "setting": "[5]", "result": "109 % of control"}, {"measurement": "T/C", "setting": "dose: 20.0 mg/kg/injection, schedule: Q04DX003 (ip), vehicle: other", "result": "114 % of control"}, {"measurement": "T/C", "setting": "[3]", "result": "154 % of control"}]}, {"smiles": "CNC(=O)ON=C1CCC(CC2CCCCC2)CC1", "note": "(stereo not given)", "values": [{"measurement": "T/C", "setting": "dose: 25.0 mg/kg/injection, schedule: Q01DX009 (ip), vehicle: Klucel (hydroxypropylcellulose) (HPC)", "result": "93 % of control"}, {"measurement": "T/C", "setting": "dose: 50.0 mg/kg/injection, schedule: Q01DX009 (ip), vehicle: Klucel (hydroxypropylcellulose) (HPC)", "result": "100 % of control"}, {"measurement": "T/C", "setting": "dose: 100.0 mg/kg/injection, schedule: Q01DX009 (ip), vehicle: Klucel (hydroxypropylcellulose) (HPC)", "result": "103 % of control"}]}, {"smiles": "CC1(c2ccc(N(CCCl)CCCl)cc2)NC(=O)NC1=O", "note": "(stereo not given)", "values": [{"measurement": "T/C", "setting": "dose: 2.5 mg/kg/injection, schedule: Q01DX009 (ip), vehicle: Klucel (hydroxypropylcellulose) (HPC)", "result": "104 % of control"}, {"measurement": "T/C", "setting": "[6]", "result": "94 % of control and 111 % of control"}, {"measurement": "T/C", "setting": "dose: 18.75 mg/kg/injection, schedule: Q01DX009 (ip), vehicle: Klucel (hydroxypropylcellulose) (HPC)", "result": "119 % of control"}, {"measurement": "T/C", "setting": "dose: 20.0 mg/kg/injection, schedule: Q01DX009 (ip), vehicle: Klucel (hydroxypropylcellulose) (HPC)", "result": "120 % of control and 123 % of control"}, {"measurement": "T/C", "setting": "dose: 37.5 mg/kg/injection, schedule: Q01DX009 (ip), vehicle: Klucel (hydroxypropylcellulose) (HPC)", "result": "102 % of control"}, {"measurement": "T/C", "setting": "dose: 40.0 mg/kg/injection, schedule: Q01DX009 (ip), vehicle: Klucel (hydroxypropylcellulose) (HPC)", "result": "157 % of control and 161 % of control"}, {"measurement": "T/C", "setting": "dose: 75.0 mg/kg/injection, schedule: Q01DX009 (ip), vehicle: Klucel (hydroxypropylcellulose) (HPC)", "result": "90 % of control"}]}, {"smiles": "CC1(C)OCC(C2CCC3(C)C4=CCC5C(C)(C)C(O)CCC5(C)C4CCC23C)CC(O)C1O", "note": "(stereo not given)", "values": [{"measurement": "T/C", "setting": "[6]", "result": "118 % of control"}, {"measurement": "T/C", "setting": "dose: 10.0 mg/kg/injection, schedule: Q01DX009 (ip), vehicle: Klucel (hydroxypropylcellulose) (HPC)", "result": "102 % of control"}]}, {"smiles": "[Cl][Pt+2][Cl].[NH-]C1CCC1.[NH-]C1CCC1", "values": [{"measurement": "T/C", "setting": "dose: 0.5 mg/kg/injection, schedule: Q01DX009 (ip), vehicle: saline with Tween-80", "result": "108 % of control"}, {"measurement": "T/C", "setting": "dose: 1.0 mg/kg/injection, schedule: Q01DX009 (ip), vehicle: saline with Tween-80", "result": "117 % of control"}, {"measurement": "T/C", "setting": "dose: 2.0 mg/kg/injection, schedule: Q01DX009 (ip), vehicle: saline with Tween-80", "result": "115 % of control"}, {"measurement": "T/C", "setting": "[6]", "result": "112 % of control"}]}, {"smiles": "NNc1ncnc2nc[nH]c12", "values": [{"measurement": "T/C", "setting": "[2]", "result": "108 % of control"}, {"measurement": "T/C", "setting": "[3]", "result": "120 % of control"}, {"measurement": "T/C", "setting": "[4]", "result": "100 % of control"}]}, {"smiles": "CNC(=O)n1c(N)nc(-c2ccccc2)c1-c1ccccc1", "values": [{"measurement": "T/C", "setting": "[5]", "result": "98 % of control"}, {"measurement": "T/C", "setting": "dose: 12.5 mg/kg/injection, schedule: Q01DX009 (ip), vehicle: saline with Tween-80", "result": "98 % of control"}, {"measurement": "T/C", "setting": "dose: 25.0 mg/kg/injection, schedule: Q01DX009 (ip), vehicle: saline with Tween-80", "result": "106 % of control"}, {"measurement": "T/C", "setting": "dose: 50.0 mg/kg/injection, schedule: Q01DX009 (ip), vehicle: saline with Tween-80", "result": "107 % of control"}]}, {"smiles": "NC(=S)N/N=C/c1nccc2ccccc12", "values": [{"measurement": "T/C", "setting": "[1]", "result": "153 % of control"}, {"measurement": "T/C", "setting": "dose: 9.4 mg/kg/injection, schedule: Q01DX009 (ip), vehicle: saline with Tween-80", "result": "105 % of control and 122 % of control"}, {"measurement": "T/C", "setting": "dose: 9.4 mg/kg/injection, schedule: Q04DX003 (ip), vehicle: saline", "result": "122 % of control"}, {"measurement": "T/C", "setting": "dose: 18.8 mg/kg/injection, schedule: Q01DX009 (ip), vehicle: saline with Tween-80", "result": "118 % of control and 122 % of control and 124 % of control"}, {"measurement": "T/C", "setting": "[3]", "result": "172 % of control"}, {"measurement": "T/C", "setting": "[4]", "result": "196 % of control"}, {"measurement": "T/C", "setting": "dose: 100.0 mg/kg/injection, schedule: Q01DX009 (ip), vehicle: saline", "result": "155 % of control"}, {"measurement": "T/C", "setting": "dose: 150.0 mg/kg/injection, schedule: Q04DX003 (ip), vehicle: saline", "result": "152 % of control"}]}, {"smiles": "CCCC[S][Sn]([CH2]CCC)([CH2]CCC)[S]CCCC", "values": [{"measurement": "T/C", "setting": "dose: 0.19 mg/kg/injection, schedule: Q01DX009 (ip), vehicle: saline with Tween-80", "result": "98 % of control"}, {"measurement": "T/C", "setting": "dose: 0.38 mg/kg/injection, schedule: Q01DX009 (ip), vehicle: saline with Tween-80", "result": "98 % of control"}, {"measurement": "T/C", "setting": "dose: 0.75 mg/kg/injection, schedule: Q01DX009 (ip), vehicle: saline with Tween-80", "result": "99 % of control"}]}, {"smiles": "Cc1cc(Cc2cc(C)cc(C(C)(C)C)c2O)c(O)c(Cc2cc(C)cc(C(C)(C)C)c2O)c1", "values": [{"measurement": "T/C", "setting": "dose: 100.0 mg/kg/injection, schedule: Q04DX003 (ip), vehicle: gum acacia", "result": "97 % of control"}, {"measurement": "T/C", "setting": "dose: 200.0 mg/kg/injection, schedule: Q04DX003 (ip), vehicle: gum acacia", "result": "100 % of control"}]}, {"smiles": "NC(CO)C(=O)NC1(C(=O)O)CCCC1", "note": "(stereo not given) (H-[ξS]-[Ac5c]-OH)", "values": [{"measurement": "T/C", "setting": "dose: 100.0 mg/kg/injection, schedule: Q04DX003 (ip), vehicle: saline with Tween-80", "result": "123 % of control"}, {"measurement": "T/C", "setting": "dose: 133.0 mg/kg/injection, schedule: Q04DX003 (ip), vehicle: saline with Tween-80", "result": "122 % of control"}, {"measurement": "T/C", "setting": "dose: 300.0 mg/kg/injection, schedule: Q04DX003 (ip), vehicle: saline with Tween-80", "result": "117 % of control"}, {"measurement": "T/C", "setting": "dose: 400.0 mg/kg/injection, schedule: Q04DX003 (ip), vehicle: saline with Tween-80", "result": "100 % of control"}]}]}
